Results on 6 molecules are retold here after patent US4284786A, “5-Methylisoxazole-4-carboxylic-(4-trifluoromethyl)-anilide” (priority 1978, dated 1981).

Series [1] relates to allergic encephalomyelitis. Put plainly: Allergic encephalomyelitis (Levine). In kind it is in vivo, male rats, Wistar-Lewis strain. To be noted: for Allergic encephalomyelitis (3) % inhibition: days 1-12, index on 11th day. Here is the method:
Known non-steroid antiphlogistic agents are here at most very slightly active.
The investigations were carried out by the method of Levine (Arch.int.Pharmacodyn. 230, 309 (1977)). The experimental animals used were male rats of a Wistar-Lewis strain having a body weight of between 180 and 220 g. The encephalomyelitis was induced by injection of complete Freund adjuvant to which freshly withdrawn homogenized rat spinal marrow extract and Bordetella pertussis vaccine had been added. The compounds to be compared were administered orally once a day from the 1st to the 12th day. For each dose, and for the control group, a group of 10 animals was used. From the 7th day of the experiment, the paralysis symptoms were grouped together daily in one index with the mortality and the change of body weight. […]
loss of 20 g of body weight in each case: 1 point […]
hindquarters paralysis: 3 points paralysis of the entire body: 5 points
The assessment criterion was the percentage inhibition of the index compared to untreated control animals on the 11th day of the experiment. On conclusion of the experiment, blood was taken from the surviving animals to determine the erythrocyte count and leucocyte count as well as the hematocrit.

Series [2] has as its system rats. Kind of series: in vivo. The settings on record: oral toxicity, relative to compound B. Here is the method:
(§1) The acute toxicity were determined by standard methods on NMRI mice and on rats of the Wister and Sprague-Dawley strains. 6 animals were used per dose. The LD50 values were determined by the method of Litchfield and Wilcoxon.

Series [3] in a line: in vivo. To be noted: rat, in vivo, po. On the procedure: as §1
The subject of series [4] is adjuvant arthritis. Kind of series: Adjuvant arthritis, Perper modification. In kind it is in vivo, male rats, Wistar-Lewis strain. To be noted: for ED50: Rattus norvegicus, 504 h, oral, days 1-12, paw volume on 21st day, read-out: Adjuvant arthritis Perper (2) ED50; for Adjuvant arthritis Perper (2) ED50: result in words. Here is the method:
(§2) The investigations were carried out by the method of Pearson (Arthrit.Rheum. 2, 440 (1959)). The experimental animals used were male rats of a Wistar-Lewis strain, having a body weight of between 130 and 200 g. The compounds to be compared were administered orally, daily from the 1st to the 17th day of the experiment. Animals of the control group were given the solvent only. For each dosage, and in the control group, a group of 8 animals was used. The criterion of the activity was the reduction in the paw volume increase compared to the untreated control group. The ED50 values were determined graphically from the dose/effect curve.
The experimental animals and experimental methods were as under 1., but the animals were only treated from the 1st to the 12th day of the experiment; after a treatment-free interval of 9 days, the paw volume was determined on the 21st day.

Series [5] can be described thus: Acute toxicity, intraperitoneal administration to mice. Further details: species or system NMRI mice. The settings on record: mouse, in vivo, ip. The source says:
(§3) 6 animals were used per dose.

Series [6] can be described thus: in vivo. Further details: species or system male Sprague-Dawley rats. The settings on record: rat, in vivo; for selectivity ratio: acute UD50 / ED50, read-out: Therapeutic index acute UD50/ED50. Here is the method: (§4) The investigations were carried out in groups of 10 male Sprague-Dawley rats having a body weight of 200-300 g. 48 hours before administration of the compounds to be compared, and up to the time of killing the animals, food was withheld, but there was free access to drinking water. The rats were killed 24 hours after oral administration, and the stomach was removed under running water and inspected for lesions of the mucous membrane. All macroscopically visible lesions were rated as ulcers.

Series [7] concerns stomach mucous membrane. Kind of series: Sub-acute ulcerogenic action. In kind it is in vivo, male Sprague-Dawley rats. The settings on record: sub-acute, relative to compound B. Here is the method: as §4, with “ulcers. The proportion of animals with ulcers at each dose was determined, as was the UD50 using the method of Litchfield and Wilcoxon (J.Pharmacol.exp.Ther. 96, 99 (1949)).” for “ulcers.”
(§5) The experimental animals and the experimental method were as under 4, with the following modification: the compounds to be compared were administered orally once daily for 4 days to normally fed rats and the animals were killed on the 5th day, after food had been withheld for 24 hours. According to Shriver, this method gives more informative results than a single administration, since medicamentous therapy of rheumatic patients also requires repeated treatment (Toxicology and Appl. Pharmacology 32, 73 (1975)).

Series [8] in a line: Sub-acute ulcerogenic action. In kind it is in vivo, male Sprague-Dawley rats. The settings on record: rat, in vivo, po; sub-acute UD50 / ED50; read-out: Therapeutic index sub-acute UD50/ED50. Here is the method: as §4, with “ulcers. The proportion of animals with ulcers at each dose was determined, as was the UD50 using the method of Litchfield and Wilcoxon (J.Pharmacol.exp.Ther. 96, 99 (1949)).” for “ulcers.”
as §5

Series [9] deals with adjuvant arthritis. Kind of series: Adjuvant arthritis, preventive experiment (Pearson). In kind it is in vivo, male rats, Wistar-Lewis strain. The settings on record: for ED50: Rattus norvegicus, oral, daily days 1-17, reduction in paw volume increase. On the procedure: as §2
The test system of series [10] is stomach mucous membrane. Put plainly: in vivo. On the set-up: species or system male Sprague-Dawley rats. The settings on record: single oral dose, fasted rats, 24 hours. Here is the method: as §4
The nature of series [11]: Acute toxicity, oral administration, mice. To be noted: mouse, in vivo; for selectivity ratio: oral LD50 in mice / ED50, read-out: Therapeutic index LD50/ED50.
From the text: as §3

[12] abbreviates: in the therapeutic dosage range.

Where two headings read alike, the source gives them in different places.

By LD50 is commonly meant the dose expected to kill half of the subjects tested. A lower LD50 goes with a more toxic substance. Usually ED50 stands for the midpoint of the dose-response relation. `Cc1oncc1C(=O)Nc1ccc(C(F)(F)F)cc1` [compound A, 5-Methylisoxazole-4-carboxylic acid 4-trifluoromethyl-anilide]: in series [1] (dose 10 mg/kg oral), the “Allergic encephalomyelitis (3) % inhibition” value was found to be 100%. Also, the “inhibition of immunopathological processes, allergic encephalomyelitis test” value in series [1] (setting [12]) is given as “inhibits immunopathological processes”. Besides, the “100% inhibition of the paralysis symptoms in allergic encephalomyelitis without gastro-intestinal bleeding” value in [1] (rat, in vivo) is listed as “possible”. Besides, the “therapeutic range (LD50/ED50) times greater than that of compound B” value in [2] was 2.4 times. Besides, the LD50 in series [3] is 235 mg/kg; in [5] it was 150 to 300 mg/kg. The selectivity ratio in [3] was 100; in series [6] (po), 25; in series [8], 33. Besides, the ED50 came out at 4.5 mg/kg in [4] and 2.3 mg/kg in series [9]. Further, the “inhibition of immunopathological processes, Perper adjuvant arthritis test” value in series [4] (setting [12]) is given as “inhibits immunopathological processes”. Moreover, in [6] (po), the TD50 at 24 h amounted to 57 mg/kg. Also, the “therapeutic index (UD50/ED50; sub-acute) times greater than that of compound B” value in [7] was determined as 4.1 times. The “activity times greater than that of compound B” value in [9] (ED50, adjuvant arthritis, preventive, relative to compound B) was determined as 6.5 times.
As for `Cc1oncc1C(=O)Nc1ccc(F)cc1` [compound B, 5-methylisoxazole-4-carboxylic acid 4-fluoroanilide], the “Allergic encephalomyelitis (3) % inhibition” value in series [1] (dose 25 mg/kg oral) is 43%. Also, in series [1] (dose 50 mg/kg oral), the “Allergic encephalomyelitis (3): finding printed in the % inhibition column” value was “anaemia”. Further, the values for the LD50 in series [3] and in [5] were 620 mg/kg and 200 to 400 mg/kg, respectively. For the same molecule, the selectivity ratio in series [3] is 41; in [6] (po), 17; in series [8], 8. Moreover, the 50% effective dose (ED50) in [4] came to 25 mg/kg; in series [9] it was 15 mg/kg. Further, the “Ulcerogenic character acute UD50” value in series [10] came to 250 mg/kg.
`Cc1oncc1C(=O)Nc1cccc(C(F)(F)F)c1` [compound C, 5-methylixoazole-4-carboxylic acid 3-trifluoromethylanilide]: the “Allergic encephalomyelitis (3) % inhibition” value in [1] (dose 10 mg/kg oral) amounted to 0%. Further, the LD50 was 740 mg/kg in [11] (po) and 100 to 250 mg/kg in [5]. For the same molecule, the selectivity ratio in series [11] was < 15; in series [6] (po), < 12. Moreover, the “Adjuvant arthritis Perper (2) ED50” value in series [4] (up to 20.0 (mg/kg)) is “inactive”. Moreover, the TD50 at 24 h in [6] (po) is ~600 mg/kg. Moreover, the median effective dose (ED50) in series [9] is > 50 mg/kg.
Turning to `Cc1oncc1C(=O)Nc1cc(C(F)(F)F)cc(C(F)(F)F)c1` [compound D, 5-methylisoxazole-4-carboxylic acid 3,5-bis-trifluoromethylanilide], the selectivity ratio was 50 in series [11] and ~2 in [6] (po). In addition, the median effective dose (ED50) in series [4] was > 50 mg/kg; in series [9], ~50 mg/kg. For the same molecule, in [5], the LD50 is > 500 mg/kg. In series [6] (single oral dose, fasted rats, 24 hours, read-out: Ulcerogenic character acute UD50), the TD50 at 24 h turned out to be 100 mg/kg.
As for `Cc1oncc1C(=O)Nc1ccccc1C(F)(F)F` [compound E, 5-methylisoxazole-4-carboxylic acid 2-trifluoromethylanilide], the “Allergic encephalomyelitis (3) % inhibition” value in [1] (dose 10 mg/kg oral) is given as 0%. The “Adjuvant arthritis Perper (2) ED50” value in series [4] (up to 20.0 (mg/kg)) was “inactive”. Besides, the LD50 in series [5] was 300 to 6000 mg/kg. In series [6] (po), the TD50 at 24 h was determined as 350 mg/kg and the selectivity ratio is < 7. Besides, the ED50 in series [9] is > 50 mg/kg.
`CCCCC1C(=O)N(c2ccccc2)N(c2ccccc2)C1=O` [compound F, phenylbutazone]: the “Allergic encephalomyelitis (3) % inhibition” value in series [1] (dose 75 mg/kg oral) is 0%. The “Adjuvant arthritis Perper (2) ED50” value in [4] (up to 75 (mg/kg)) was “inactive”. Also, the ED50 in [9] was determined as 37 mg/kg.
